According to patent US11291712B2, “Bacterial protein compositions and uses thereof” (The United States Government as Represented by the …, priority 2017, dated 2022):
Entries after “also recorded” stand apart in the source; their conditions may differ.

Columns and labels:
[1] = tested on: A. baumannii strain AB5075 VIR-O and AV-T variants; assay: Antimicrobial killing assays (time-kill); assay type: cell-based, Acinetobacter baumannii; settings: equal mixture of VIR-O and AV-T, 1 hour, CRAMP 10 μg/mL, lysozyme 10 mg/mL, LL-37 15 μg/mL, H2O2 0.01%
Experimental: An equal mixture of VIR-O and AV-T variants were grown to early-log phase in 2 mL LB broth, or LB with tetracycline 6 μg/mL for strains with plasmids. A 5 μL aliquot of each culture was mixed together in 250 μL of 0.1× tryptone/yeast extract (1 g tryptone, 0.5 g yeast extract/liter). Cells were mixed by vortexing and serial dilutions were plated on 0.5×LB agar plates to assess the initial CFU's for both VIR-O and AV-T variants. Various antimicrobials were then added at the following final concentrations: CRAMP (10 μg/mL), lysozyme (10 mg/mL), LL-37 (15 μg/mL) and H2O2. (0.01%). Cells were treated for 1 hour and dilutions were plated on 0.5×LB agar plates to enumerate the surviving VIR-O and AV-T variants.

[2] = tested on: A. baumannii strain AB5075 VIR-O and AV-T cells; assay: Sensitivity to disinfectants; assay type: cell-based, Acinetobacter baumannii; settings: BZT 0.01%, BAK 0.004%, CHG 0.008%; 30 min at room temperature
Experimental: Overnight standing bacterial cultures at room temperature were sub-cultured in LB broth and grown at 37° C. with shaking to an OD600˜0.15. Nine hundred ninety microliters of culture were then added to tubes containing 10 μL of the appropriated disinfectants, BZT (Sigma-Aldrich), BAK (Sigma-Aldrich) and CHG (Sigma-Aldrich), respectively. Tubes were incubated at room temperature for 30 min. Cultures were then serially diluted and plated for CFU enumerations.

| Molecule | survival of VIR-O (O) cells compared to AV-T (T) cells after treatment with the antimicrobial [1] | survival of VIR-O (O) cells compared to AV-T (T) cells after treatment with the antimicrobial ([1]; listed as hydrogen peroxide) | resistance of VIR-O (O) cells to the disinfectant compared to AV-T (T) cells [2] |
| --- | --- | --- | --- |
| OO [H2O2, hydrogen peroxide] | resistant | VIR-O cells vastly outnumbered AV-T cells |  |
| CC(C)(C)CC(C)(C)c1ccc(OCCOCC[N+](C)(C)Cc2ccccc2)cc1 [benzethonium chloride] |  |  | more resistant; also recorded: increased resistance |
| N=C(NCCCCCCNC(=N)NC(=N)Nc1ccc(Cl)cc1)NC(=N)Nc1ccc(Cl)cc1.O=C(O)[C@H](O)[C@@H](O)[C@H](O)[C@H](O)CO.O=C(O)[C@H](O)[C@@H](O)[C@H](O)[C@H](O)CO [chlorhexidine gluconate] |  |  | more resistant; also recorded: increased resistance |
| CRAMP: murine cationic antimicrobial peptide (ISRLAGLLRKGGEKIGEKLKKIGQKIKNFFQKLVPQPE; UniProt P51437 135-172, looked up) | resistant; also recorded: VIR-O cells vastly outnumbered AV-T cells |  |  |
| LL-37: human antimicrobial peptide, the human orthologue of CRAMP | VIR-O cells also outnumbered AV-T; also recorded: resistant |  |  |
| benzalkonium chloride |  |  | more resistant; also recorded: increased resistance |
| lysozyme | resistant; also recorded: VIR-O cells vastly outnumbered AV-T cells |  |  |
